PMC10545732, “Structure-based drug discovery of a corticotropin-releasing hormone receptor 1 antagonist using an X-ray free-electron laser” (Experimental & Molecular Medicine, 2023)
pIC50, pKi: −log10 of the molar value. Where two headings read alike, the source gives them in different places.

What was measured:
CORT serum levels = experiment: Serum CORT level after TST (LC-MS); assay type: in vivo, mice; conditions: 30 mg/kg orally for 3 days, immediately after TST
Experimental: (§1) The mice were anesthetized via intraperitoneal injections of 2,2,2-tribromoethanol (300 mg/kg, Sigma-Aldrich) immediately after the TST and before blood from the heart was sampled. Blood samples were collected in plastic tubes and incubated at room temperature for at least 2 h. The sera were extracted after centrifugation at 13,000×g for 10 min at 4 °C. CORT levels were determined via LC‒MS analysis. Serum (10 µL) was mixed with 20 μL of an internal standard solution (d4-cortisol) to prepare the samples. Subsequently, 100 μL of acetonitrile was added, and the mixture was centrifuged at 16,000×g for 10 min for protein precipitation. The supernatants (60 μL) were transferred into an autosampler vial, and 30 μL of water was added for efficient separation via high-performance liquid chromatography (HPLC). LC‒MS was performed with a triple quadrupole mass spectrometer coupled with HPLC using a C18 reversed-phase column. CORT levels were determined using a calibration curve constructed using CORT-spiked mouse serum. Serum samples (20 μL) were analyzed using a commercially available ELISA kit for ACTH (ab263880, Abcam) to measure ACTH serum levels.

ACTH serum levels = experiment: Serum ACTH level after TST (ELISA); assay type: in vivo, mice; conditions: 30 mg/kg orally for 3 days, immediately after TST
Experimental: as §1

C57BL/6J mice [1] = experiment: Tail suspension test (TST); assay type: in vivo; conditions: 30 mg/kg orally for 3 days, test 2 h after third dose, last 4 min of 6 min
Experimental: (§2) C57BL/6J mice (male, 9–10 weeks old) were used for the behavioral tests. All mice were maintained under a 12:12-h light–dark cycle (lights on at 7:00 A.M.) with access to food and water ad libitum. Animal care and handling were performed according to guidelines by the Institutional Animal Care and Use Committee of Yonsei University (Seoul, Korea). Antalarmin, BMK-C203, and BMK-C205 were dissolved in peceol: TPGS: PEG400 (vehicle) (70%:20%:10%, respectively) and administered orally at a dose of 30 mg/kg for 3 days at 24-h intervals. All behavioral tests were conducted 2 h after the third drug was administered during light periods of the circadian cycle. TSTs were performed to verify the effect of CRF1R antagonists on depressive-like behavior. Each mouse was suspended by its tail on a bar 30 cm above the ground for 6 min using adhesive tape. Their movements were recorded by a camera and analyzed using the same parameters via EthoVision XT 8.5 software (Noldus Technologies). Immobility times during the last 4 min of the task were measured. Each mouse was placed in an open field (40 cm × 40 cm × 40 cm chamber) for 1 h to conduct an open field test (OFT) and test locomotion. Their locomotion was recorded and analyzed using EthoVision XT 8.5.

PK studies in rats = assay type: in vivo, SD rats; conditions: male, Sprague-Dawley, rat, plasma, SD rats, n = 3
Experimental: CRF1R antagonist PKs were studied in naïve male SD rats following a single i.v. bolus injection or p.o. gavage. The i.v. injections used Antalarmin, BMK-C203, or BMK-C205 at doses of 5 mg/kg and BMK-I-152 at a dose of 1 mg/kg. The antagonist’s doses in the p.o. injection was 10 mg/kg. Three male SD rats weighing between 220 and 260 g were used to evaluate CRF1R antagonist PKs. The vehicle used for all dose groups was […]: TPGS: PEG400 (70%:20%:10%). Blood samples were collected from all treatment groups at 0 h (predose), 0.083, 0.25, 0.5, 1, 2, 4, 6, 8, and 24 h after dosing. Antalarmin, BMK-I-152, BMK-C203, and BMK-C205 concentrations in the plasma samples were determined via LC‒MS/MS (LLOQ was 1 ng/mL for CRF1R antagonists). PK parameter estimates were determined using the serial time-course profiles for plasma concentrations of three male rats per group via noncompartmental analysis using commercially available software (Phoenix WinNonlin, version 8.1, Pharsight Corporation, Mountain View, CA).

C57BL/6J mice [2] = experiment: Open field test (OFT); assay type: in vivo; conditions: 30 mg/kg orally for 3 days, 1 h open field
Experimental: as §2

CRF1R [3] = molecular target: T1, CRF1R (Homo sapiens, UniProt P34998); experiment: Calcium mobilization assay (hCRF1R Ca2+ antagonism); assay type: cell-based; conditions: for IC50 (in words): reason for not selecting
T1 construct: HEK-Gα15 cells (Eurofins Scientific) transfected with CRF1R; host or cells: HEK-Gα15 cells
T1 sequence (P34998 24-415): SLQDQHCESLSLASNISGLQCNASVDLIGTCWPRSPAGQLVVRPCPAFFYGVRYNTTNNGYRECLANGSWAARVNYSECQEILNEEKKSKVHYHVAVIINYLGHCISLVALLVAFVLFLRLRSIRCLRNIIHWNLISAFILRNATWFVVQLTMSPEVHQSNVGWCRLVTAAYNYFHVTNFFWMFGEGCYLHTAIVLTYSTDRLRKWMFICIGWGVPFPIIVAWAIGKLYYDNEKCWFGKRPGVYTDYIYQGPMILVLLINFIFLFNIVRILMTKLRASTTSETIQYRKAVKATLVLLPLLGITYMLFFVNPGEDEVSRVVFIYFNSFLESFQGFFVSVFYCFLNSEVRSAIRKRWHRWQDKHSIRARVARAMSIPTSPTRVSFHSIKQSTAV
Experimental: HEK-Gα15 cells (Eurofins Scientific) transfected with CRF1R were plated in 96-well plates at a density of 50,000 cells/100 μL per well and incubated overnight. The next day, the cells were incubated with a Calcium 6 reagent (Molecular Devices) containing 0.5 mM probenecid (Sigma) at 37 °C for 1 h before adding compounds or dimethyl sulfoxide DMSO (positive and negative control; final concentration 0.1%). After incubation at 37 °C for 1 h, 50 μL urocortin (final concentration 2 nM) (Tocris) was dispensed into the well with FLIPR-tetra (Molecular Devices). […] Intracellular calcium changes were recorded at excitation and emission wavelengths of 470–495 and 515–575 nm, respectively. Relative fluorescence units (RFU) were calculated as the fluorescence signal maximum minus the signal minimum for 30 s after addition. The graphs and IC50 concentrations were calculated using GraphPad Prism 6 software.

[4] = design: method as in PMID 21308801; conditions: liver microsomal stability assay; cited from earlier work
[5] = Microsomal stability assay, human liver microsomes; assay type: in vitro ADME
Experimental: LC‒MS/MS was performed on a TSQ Vantage (Thermo, USA) coupled with a Nexera XR LC system (Shimadzu, Japan)[32]. The separation was performed on a Kinetex C18 column (2.1 × 100 mm, 2.6 µm, Phenomenex, USA) using a mobile phase of 0.1% formic acid and acetonitrile containing 0.1% formic acid. A gradient program was used for elution at a flow rate of 0.3 mL/min. The data were acquired using multiple-reaction monitoring (MRM) in positive mode.

CYP1A2 = molecular target: T2, CYP1A2 (Homo sapiens, UniProt P05177); experiment: CYP inhibition assay CYP1A2 (phenacetin O-demethylase); assay type: in vitro ADME
T2 construct: 0.25 mg/mL human liver microsomes; from tissue; host or cells: human liver microsomes
T2 sequence (P05177 1-516): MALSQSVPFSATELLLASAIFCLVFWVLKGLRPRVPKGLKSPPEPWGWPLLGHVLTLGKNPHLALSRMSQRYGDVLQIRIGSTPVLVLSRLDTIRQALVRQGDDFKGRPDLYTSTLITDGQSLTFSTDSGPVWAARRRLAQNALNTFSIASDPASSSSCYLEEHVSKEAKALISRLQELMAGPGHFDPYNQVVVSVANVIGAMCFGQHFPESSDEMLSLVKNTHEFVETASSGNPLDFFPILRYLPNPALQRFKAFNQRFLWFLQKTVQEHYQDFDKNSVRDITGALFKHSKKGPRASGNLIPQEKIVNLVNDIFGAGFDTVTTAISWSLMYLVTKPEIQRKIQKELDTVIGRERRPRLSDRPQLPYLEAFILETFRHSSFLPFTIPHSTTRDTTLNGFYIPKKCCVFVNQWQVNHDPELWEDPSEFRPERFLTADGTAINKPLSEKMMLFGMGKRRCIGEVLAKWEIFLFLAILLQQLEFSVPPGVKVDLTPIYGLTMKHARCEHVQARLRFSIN

CRF1R [6] = molecular target: CRF1R; design: method as in PMID 21308801; conditions: cited from earlier work
CYP2C19 = molecular target: T3, CYP2C19 (Homo sapiens, UniProt P33261); experiment: CYP inhibition assay CYP2C19 (S-mephenytoin 4-hydroxylase); assay type: in vitro ADME
T3 construct: 0.25 mg/mL human liver microsomes; from tissue; host or cells: human liver microsomes
T3 sequence (P33261 whole entry): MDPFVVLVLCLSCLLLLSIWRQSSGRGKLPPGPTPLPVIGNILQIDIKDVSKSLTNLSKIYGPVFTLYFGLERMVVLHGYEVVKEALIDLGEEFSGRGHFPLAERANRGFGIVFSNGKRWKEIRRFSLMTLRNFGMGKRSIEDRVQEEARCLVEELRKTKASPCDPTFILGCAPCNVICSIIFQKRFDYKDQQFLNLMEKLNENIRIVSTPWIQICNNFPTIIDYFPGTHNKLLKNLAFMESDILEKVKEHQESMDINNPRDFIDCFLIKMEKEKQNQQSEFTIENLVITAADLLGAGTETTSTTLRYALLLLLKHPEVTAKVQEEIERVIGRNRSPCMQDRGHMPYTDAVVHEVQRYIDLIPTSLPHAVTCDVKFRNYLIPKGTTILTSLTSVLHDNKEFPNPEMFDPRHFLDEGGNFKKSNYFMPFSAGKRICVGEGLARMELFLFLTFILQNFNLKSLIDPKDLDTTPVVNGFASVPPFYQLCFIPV

[7] = Microsomal stability assay, rat liver microsomes; assay type: in vitro ADME; conditions: 1 μM, n = 3
Experimental: The incubation mixtures consisted of 0.5 mg/mL human (Corning, #452117) and rat liver microsomes (Corning, #452701), 0.1 M phosphate buffer (pH 7.4), NADPH regeneration system, and substrates (CRF1R antagonist compounds, 1 µM) in a total volume of 100 μL. […] LC‒MS/MS was performed on a TSQ Vantage (Thermo, USA) coupled with a Nexera XR LC system (Shimadzu, Japan)[32]. The separation was performed on a Kinetex C18 column (2.1 × 100 mm, 2.6 µm, Phenomenex, USA) using a mobile phase of 0.1% formic acid and acetonitrile containing 0.1% formic acid. A gradient program was used for elution at a flow rate of 0.3 mL/min. The data were acquired using multiple-reaction monitoring (MRM) in positive mode. Detection of the ions was performed by monitoring the m/z transition of 494.1 → 336.1 for BMK-I-152, 598.1 → 233.2 for BMK-C203, and 488.1 → 434.1 for BMK-C205.

CYP2C9 = molecular target: T4, CYP2C9 (Homo sapiens, UniProt P11712); experiment: CYP inhibition assay CYP2C9 (diclofenac 4-hydroxylase); assay type: in vitro ADME
T4 construct: 0.25 mg/mL human liver microsomes; from tissue; host or cells: human liver microsomes
T4 sequence (P11712 whole entry): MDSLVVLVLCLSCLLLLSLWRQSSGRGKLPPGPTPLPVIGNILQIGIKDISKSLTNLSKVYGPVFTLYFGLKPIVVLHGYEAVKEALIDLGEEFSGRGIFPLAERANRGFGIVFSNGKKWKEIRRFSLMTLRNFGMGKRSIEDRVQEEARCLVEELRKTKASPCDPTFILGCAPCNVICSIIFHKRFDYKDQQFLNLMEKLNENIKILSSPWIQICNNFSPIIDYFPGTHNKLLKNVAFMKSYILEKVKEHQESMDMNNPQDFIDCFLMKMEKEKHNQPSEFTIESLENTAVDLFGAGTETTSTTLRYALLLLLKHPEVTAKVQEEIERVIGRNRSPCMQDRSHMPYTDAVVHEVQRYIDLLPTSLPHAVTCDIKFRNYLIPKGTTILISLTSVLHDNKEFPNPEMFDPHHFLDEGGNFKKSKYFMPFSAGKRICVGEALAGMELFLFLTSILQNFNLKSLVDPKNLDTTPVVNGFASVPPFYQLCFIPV

CYP3A4 = CYP3A4 (Homo sapiens, UniProt P08684); experiment: CYP inhibition assay CYP3A4 (midazolam 1'-hydroxylase); conditions: 10 μM, human liver microsomes, n = 3
Sequence of CYP3A4 (P08684 whole entry): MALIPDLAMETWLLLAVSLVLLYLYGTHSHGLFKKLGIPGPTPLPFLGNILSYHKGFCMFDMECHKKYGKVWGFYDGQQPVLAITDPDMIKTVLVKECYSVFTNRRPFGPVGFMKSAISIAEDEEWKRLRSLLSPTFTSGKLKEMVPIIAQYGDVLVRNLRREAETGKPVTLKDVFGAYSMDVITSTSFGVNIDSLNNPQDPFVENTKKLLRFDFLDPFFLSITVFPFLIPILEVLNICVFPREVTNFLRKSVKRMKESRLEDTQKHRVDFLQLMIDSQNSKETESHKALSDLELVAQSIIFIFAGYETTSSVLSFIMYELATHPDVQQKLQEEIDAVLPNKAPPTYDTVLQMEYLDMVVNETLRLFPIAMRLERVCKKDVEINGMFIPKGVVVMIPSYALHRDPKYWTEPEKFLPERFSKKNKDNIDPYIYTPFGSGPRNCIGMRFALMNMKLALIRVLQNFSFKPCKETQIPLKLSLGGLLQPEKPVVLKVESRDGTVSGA

CYP2D6 = CYP2D6 (Homo sapiens, UniProt P10635); experiment: CYP inhibition assay CYP2D6 (dextromethorphan O-demethylase); conditions: 10 μM, human liver microsomes, n = 3
Sequence of CYP2D6 (P10635 whole entry): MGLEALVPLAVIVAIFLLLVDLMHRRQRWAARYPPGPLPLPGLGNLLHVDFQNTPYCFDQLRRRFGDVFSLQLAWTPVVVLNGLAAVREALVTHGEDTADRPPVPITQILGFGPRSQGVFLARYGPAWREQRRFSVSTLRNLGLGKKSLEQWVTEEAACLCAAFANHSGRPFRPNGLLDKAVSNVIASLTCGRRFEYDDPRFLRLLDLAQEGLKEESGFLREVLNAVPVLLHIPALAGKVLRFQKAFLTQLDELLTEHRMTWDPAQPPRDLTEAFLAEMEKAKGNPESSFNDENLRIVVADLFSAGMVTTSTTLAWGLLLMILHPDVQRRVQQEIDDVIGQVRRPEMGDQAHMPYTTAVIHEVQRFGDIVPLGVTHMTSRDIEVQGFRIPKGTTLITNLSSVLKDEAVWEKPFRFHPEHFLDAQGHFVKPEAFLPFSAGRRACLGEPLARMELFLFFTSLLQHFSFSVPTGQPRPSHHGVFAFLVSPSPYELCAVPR

[8] = 10 μM, human liver microsomes, n = 3

CCCCN(CC)c1nc(C)nc2c1c(C)c(C)n2-c1c(C)cc(C)cc1C [Antalarmin, reference compound]
serum CORT level versus vehicle (CORT serum levels): no significant difference
serum ACTH level versus vehicle (ACTH serum levels): no significant difference
TST immobility time versus vehicle (C57BL/6J mice [1]): no significant difference
AUC(0-t) (PK studies in rats; iv, I.V, 5 mg/kg): 4370 ng·h/mL
half-life (PK studies in rats; iv, I.V, 5 mg/kg): 3.09 h
AUC(0-t) (PK studies in rats; po, P.O, 10 mg/kg): 660 ng·h/mL
Cmax (PK studies in rats; po, P.O, 10 mg/kg): 146 ng/mL
Tmax (PK studies in rats; po, P.O, 10 mg/kg): 4 h
bioavailability (PK studies in rats; po, P.O, 10 mg/kg): 7.6%
half-life (PK studies in rats; po, P.O, 10 mg/kg): 4.08 h
OFT locomotion / overall moving distance (C57BL/6J mice [2]): did not differ among groups

CCCCN(CCCC(F)(F)F)c1nc(C)nc2c(-c3c(OC)cc(Br)cc3OC)c(C)nn12 [BMK-C207]
IC50 (in words) (CRF1R [3]): high IC50 values

COc1cc(Br)cc(OC)c1-c1c(C)nn2c(N(CCCC(F)(F)F)CC3CC3)nc(C)nc12 [BMK-C209]
IC50 (in words) (CRF1R [3]): high IC50 values

CCCN(CCCC(F)(F)F)c1nc(C)nc2c(-c3c(OC)cc(Br)cc3OC)c(C)nn12 [BMK-C210]
IC50 (in words) (CRF1R [3]): high IC50 values

COCCN(CCOC)c1nc(C)nc2c(-c3c(OC)cc(Br)cc3OC)c(C)nn12 [BMK-I-152]
half-life [4]: < 0.5 h
Liver microsomal stability, Human (percentage remaining after 30 min) ([5]; 1 μM, n = 3): 27.7 ± 3.87%
liver microsomal stability (remaining) ([5]; in almost all species (human and rat liver microsomes), 30 min): below 35%
CYP1A2, percentage of control activity (CYP1A2; [8]): 98.8 ± 1.8 percentage of control activity
pKi (CRF1R [6]): 9.46
CYP2C19, percentage of control activity (CYP2C19; [8]): 83.2 ± 5.0 percentage of control activity
Liver microsomal stability, Rat (percentage remaining after 30 min) [7]: 35.3 ± 5.85%
pIC50 (CRF1R [3]; HEK-Gα15 cells transfected with CRF1R, urocortin 2 nM, n = 3): 7.59
IC50 fold lower than that of Antalarmin (CRF1R [3]; hCRF1R Ca2+ antagonism assay): ~12 fold
IC50 fold lower than that of CP376395 (CRF1R [3]; hCRF1R Ca2+ antagonism assay): ~ 55 fold
AUC(0-t) (PK studies in rats; iv, I.V, 1 mg/kg): 913 ng·h/mL
half-life (PK studies in rats; iv, I.V, 1 mg/kg): 13.5 h
AUC(0-t) (PK studies in rats; po, P.O, 10 mg/kg): 3080 ng·h/mL
Cmax (PK studies in rats; po, P.O, 10 mg/kg): 267 ng/mL
Tmax (PK studies in rats; po, P.O, 10 mg/kg): 6.67 h
bioavailability (PK studies in rats; po, P.O, 10 mg/kg): 33.8%
half-life (PK studies in rats; po, P.O, 10 mg/kg): 5.66 h
CYP2C9, percentage of control activity (CYP2C9; [8]): 89.9 ± 7.0 percentage of control activity
CYP3A4, percentage of control activity (CYP3A4): 99.8 ± 3.0 percentage of control activity
CYP2D6, percentage of control activity (CYP2D6): > 100 ± 1.6 percentage of control activity

CC(=O)N1CCN(c2ccc(OCC3COC(Cn4ccnc4)(c4ccc(Cl)cc4Cl)O3)cc2)CC1 (stereo not shown) [Ketoconazole, reference compound]
CYP1A2, percentage of control activity (CYP1A2; reference chemical at 0.1 μM): 94.3 ± 5.3 percentage of control activity
CYP2C19, percentage of control activity (CYP2C19; reference chemical at 0.1 μM): > 100 ± 12.9 percentage of control activity
CYP2C9, percentage of control activity (CYP2C9; reference chemical at 0.1 μM): 94.0 ± 9.2 percentage of control activity
